Experimental data published in US20080039328A1, “Post Harvest Control of Genetically Modified Crop Growth Employing D-Amino Acid Compounds” (BASF PLANT SCIENCE GMBH, priority 2004, published 2008).
Entries after “also recorded” stand apart in the source; their conditions may differ.

Tests used:
[1] = tested on: A. thaliana; experiment: Growth and toxicity tests on A. thaliana (genotype not stated); type: in vivo; conditions: for Effect on growth of A. thaliana: in vivo
Description: (§1) Presumably endogenous transaminase may be specific for the L-enantiomer, so the corresponding D-enantiomer is not metabolized in wildtype plants, but only in plants expressing DAAO. […] The toxicity of some D-amino acids on organisms is not well understood, and has only occasionally been studied in plants (Gamburg K Z & Rekoslavskaya N I (1991) Fiziologiya Rastenii 38, 1236-1246). Apart from A. thaliana, we have also tested the susceptibility of other plant species to D-serine, including poplar, tobacco, barley, maize, tomato and spruce. We found all tested species susceptible to D-serine at concentrations similar to those shown to be toxic for A. thaliana. A proposed mechanism for D-serine toxicity in bacteria is competitive inhibition of […] coupling to pantoic acid, thus inhibiting formation of pantothenic acid (Cosloy S D & McFall E (1973) J. Bacteriol. 114, 685-694). […] A second putative cause of D-amino acid toxicity is through competitive binding to tRNA. […] Genes similar to that encoding bacterial deacylase have also been identified. in A. thaliana (Soutourina J et al. (1996) J. Biol. Chem. 274, 19109-19114), corroborating the possibility that the mode of toxic action of D-amino acids might be through competitive binding to tRNA.

[2] = tested on: DAAO transgenic plants; experiment: Germination of DAAO transgenic plants on D-Asn; type: in vivo; conditions: 30 mM
Description: The D-amino acid oxidase of the invention may be expressed in the cytosol, peroxisome, or other intracellular compartment of the plant cell. Compartmentalisation of the D-amino acid metabolising polypeptide may be achieved by fusing the nucleic acid sequence encoding the DAAO polypeptide to a sequence encoding a transit peptide to generate a fusion protein. Gene products expressed without such transit peptides generally accumulate in the cytosol. The localization of expressed DAAO in the peroxisome produces H2O2 that can be metabolised by the H2O2 degrading enzyme catalase. Higher levels of D-amino acids may therefore be required to produce damaging levels of H2O2. Expression of DAAO in the cytosol, where levels of catalase activity are lower, reduces the amount of D-amino acid required to produce damaging levels H2O2. Expression of DAAO in the cytosol may be achieved by removing peroxisome targeting signals or transit peptides from the encoding nucleic acid sequence. For example, the dao1 gene (EC: 1.4.3.3: GenBank Acc.-No.: U60066) from the yeast Rhodotorula gracilis (Rhodosporidium toruloides) was cloned as described (WO 03/060133). The last nine nucleotides encode the signal peptide SKL, which guides the protein to the peroxisome sub-cellular organelle.

[3] = tested on: wild-type Arabidopsis thaliana; experiment: Growth of wild-type A. thaliana plantlets on medium with D-amino acids; type: in vivo; conditions: for Effect on plant growth (FIG. 3): 3 mM in half-concentrated Murashige-Skoog medium, wild type plantlets; for Growth of wild-type plants on selection media: immediately after the cotyledons had emerged; for Growth of wild-type plants (FIG. 4): various concentrations in half-strength MS, 10 d after germination
Description: Wild type Arabidopsis thaliana plantlets were grown on half-concentrated Murashige-Skoog medium (0.5% (wt/vol) sucrose, 0.8% (wt/vol) agar) supplemented with the indicated D-amino acid at either 3 mM (Panel A) or 30 mM (Panel B).
(§2) FIG. 4 D-amino acid dose responses of dao1 transgenic and wild-type A. thaliana. (a-d) Growth of dao1 transgenic line 3:7 (white), 10:7 (light gray), 13:4 (gray) and wild-type (black) plants, in fresh weight per plant, on media containing various concentrations of D-serine, D-alanine, D-isoleucine and D-valine in half-strength MS with 0.5% (wt/vol) sucrose and 0.8% (wt/vol) agar. Different concentration ranges were used for different ID-amino acids. The plants were grown for 10 d after germination under 16 h photoperiods at 24° C.; n=10±s.e.m., except for plants grown on D-isoleucine, where smaller Petri dishes were used, (n=6±s.e.m.).
(§3) T1 seeds of transgenic Arabidopsis plants were surface-sterilized and sown in Petri plates that were sealed with gas-permeable tape. The growth medium was half strength MS19 with 0.5% (wt/vol) sucrose and 0.8% (wt/vol) agar, plus 3 mM D-alanine, 3 mM D-serine or 50 μg/ml kanamycin as the selective agent. Plants were grown for 5 d after germination with a 16 h photoperiod at 24° C. To evaluate the selection efficiency on different substrates, 2,074, 1,914 and 1,810 T1 seeds were sown on D-alanine-, D-serine- and kanamycin-selective plates, respectively, and the number of surviving seedlings was counted (44, 32 and 43, respectively).

[4] = tested on: Transgenic seedlings; experiment: Foliar application on transgenic seedlings; parameters: species or system A. thaliana; conditions: in vivo
Description: (§4) Selection of seedlings on media containing D-alanine or D-serine was very rapid compared to selection on kanamycin. […] Therefore, transformants could be distinguished from non-transformed plants directly after germination. The difference between wild-type and transgenic plants after D-amino acid selection was unambiguous, with no intermediate phenotypes. In contrast, intermediate phenotypes are common when kanamycin resistance is used as a selection marker. […] Transgenic seedlings were resistant to foliar application of D-alanine or D-serine, so selection on soil was possible.

[5] = tested on: T1 seeds of transgenic Arabidopsis plants; experiment: Selection of T1 seeds on selective media; type: in vivo; conditions: for Number of surviving seedlings: 2,074, 1,914 and 1,810 T1 seeds sown on D-alanine (3 mM), D-serine (3 mM) and kanamycin (50 μg/ml) plates, 5 d after germination; for Transformation frequencies found on the selective media: kanamycin 50 μg/ml, D-alanine 3 mM, D-serine 3 mM
Description: as §3
(§5) The T-DNA contained both 35S:dao1 and pNos:nptII, allowing D-amino acid and kanamycin selection to be compared in the same lot of seeds.

[6] = tested on: wild-type seedlings; experiment: Sprayed (foliar) application on wild-type seedlings; type: in vivo, A. thaliana; conditions: one-week-old seedlings, sprayed on three consecutive days, 50 mM
Description: as §4

[7] = tested on: dao1 transgenic A. thaliana; experiment: Growth of dao1 (DAAO) transgenic A. thaliana on medium with D-amino acids; type: in vivo, Arabidopsis thaliana; conditions: for Effect on the transgenic plants: concentration of 30 mM; for Development of transgenic plants under selection conditions: in vivo
Description: as §2, §3, §5
Therefore, plants containing the construct were tested as described above on two sets of media, one containing D-isoleucine and the other containing D-valine at various concentrations, to assess whether DAAO could also be used as a counter-selection marker. Unambiguous counter-selection selection was achieved when seeds were sown on either D-isoleucine or D-valine at concentrations greater than 10 mM (FIG. 4 c,d).

[8] = tested on: tomato; experiment: Susceptibility of other plant species to D-serine; type: in vivo; conditions: concentrations similar to those toxic for A. thaliana
Description: as §1

[9] = tested on: maize; experiment: Susceptibility of other plant species to D-serine; type: in vivo; conditions: concentrations similar to those toxic for A. thaliana
Description: as §1

[10] = tested on: tobacco; experiment: Susceptibility of other plant species to D-serine; type: in vivo; conditions: concentrations similar to those toxic for A. thaliana
Description: as §1

[11] = tested on: barley; experiment: Susceptibility of other plant species to D-serine; type: in vivo; conditions: concentrations similar to those toxic for A. thaliana
Description: as §1

[12] = tested on: spruce; experiment: Susceptibility of other plant species to D-serine; type: in vivo; conditions: concentrations similar to those toxic for A. thaliana
Description: as §1

[13] = tested on: poplar; experiment: Susceptibility of other plant species to D-serine; type: in vivo; conditions: concentrations similar to those toxic for A. thaliana
Description: as §1

[14] = target: T1, DAAO (Rhodotorula toruloides, UniProt P80324); experiment: DAAO incubation of cell-free plant extracts, keto acid production by HPLC; type: biochemical, Rhodotorula gracilis; conditions: cell-free extracts from dao1 transgenic line 10:7
T1 construct: expressed in transfected cells; host or cells: Arabidopsis thaliana (Col-0), dao1 transgenic line 10:7, transformed with pPCV702:dao1 (CaMV 35S); crude soluble protein extract
T1 sequence (P80324 25-368): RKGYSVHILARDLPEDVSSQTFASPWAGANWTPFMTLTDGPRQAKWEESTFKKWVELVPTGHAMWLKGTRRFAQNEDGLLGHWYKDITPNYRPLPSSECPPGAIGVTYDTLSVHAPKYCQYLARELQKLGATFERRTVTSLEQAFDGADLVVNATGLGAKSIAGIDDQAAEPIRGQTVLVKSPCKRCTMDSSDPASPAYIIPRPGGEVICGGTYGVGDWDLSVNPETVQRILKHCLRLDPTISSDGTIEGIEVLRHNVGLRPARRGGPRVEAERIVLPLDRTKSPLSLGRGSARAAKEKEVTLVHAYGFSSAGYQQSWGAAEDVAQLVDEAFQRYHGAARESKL
Description: Soluble proteins were extracted by shaking 0.1 g samples of plant material that had been finely pulverized in a 1.5 ml Eppendorf tube in 1 ml of 0.1 M potassium phosphate buffer, pH 8. DAAO activity was then assayed as follows. Reaction mixtures were prepared containing 2,120 μl of 0.1 M potassium phosphate buffer, pH 8, 80 μl of crude protein extract and 100 μl of 0.3 M D-alanine. The samples were incubated for 2 h at 30° C. The enzyme activity was then assessed, by measuring the increase in absorbance at 220 nm (E=1.090 M^−1 cm^−1) associated with the conversion of D-alanine to pyruvate, after transferring the test tubes to boiling water for […] to stop the reaction. In control reactions, D-alanine was added immediately before boiling. One unit of DAAO activity is defined as the turnover of one micromole of substrate per minute, and activity was expressed per gram plant biomass (fresh weight). The breakdown of D-isoleucine and D-valine in DAAO incubations, and the associated production of 3-methyl-2-oxopentanoate and 3-methyl-2-oxobutanoate, were analyzed by high-performance liquid chromatography. In other respects the reactions were carried out as described above.
Presumably endogenous transaminase may be specific for the L-enantiomer, so the corresponding D-enantiomer is not metabolized in wildtype plants, but only in plants expressing DAAO. […]

Structure (SMILES): CC(C)C(=O)C(=O)O [3-methyl-2-oxobutanoate, 3-methyl-2-oxobutanoate]
- Effect on growth of A. thaliana [1]: impaired growth

Structure (SMILES): CCC(C)C(=O)C(=O)O (stereo not drawn) [3-methyl-2-oxopentanoate]
- Effect on growth of A. thaliana [1]: impaired growth

Structure (SMILES): NC(=O)C[C@@H](N)C(=O)O [D-Asn, D-asparagine]
- Inhibition of germination of DAAO transgenic plants (cytosolic and peroxisomal constructs) [2]: inhibited significantly more than the wild-type

Structure (SMILES): C[C@@H](N)C(=O)O [D-alanine]
- Effect on plant growth (FIG. 3) [3]: severe phytotoxic effects
- Growth of wild-type plants on selection media [3]: inhibited growth
- Effect on wild-type plantlets (FIG. 2) ([3]; treated with 30 mM): toxic effect
- Growth of wild-type plants (FIG. 4) [3]: inhibited even at quite low concentrations
- Response of transgenic seedlings to foliar application [4]: resistant
- Number of surviving seedlings [5]: 44
- Transformation frequencies found on the selective media [5]: 2.12%
- Effect of sprayed application on wild-type seedlings [6]: effectively killed
- Effect on the transgenic plants [7]: no negative effect
- Development of transgenic plants under selection conditions [7]: developed normally
- Effect on transgenic plantlets comprising DAAO gene (FIG. 2) ([7]; treated with 30 mM): no severe damage

Structure (SMILES): N[C@H](CO)C(=O)O [D-serine]
- Effect on plant growth (FIG. 3) [3]: severe phytotoxic effects
- Growth of wild-type plants on selection media [3]: inhibited growth
- Growth of wild-type plants (FIG. 4) [3]: inhibited even at quite low concentrations
- Mitigation of toxicity in A. thaliana by pantothenic acid or a-alanine ([1]; pantothenic acid or a-alanine provided): could not be mitigated
- Response of transgenic seedlings to foliar application [4]: resistant
- Susceptibility of tomato [8]: susceptible
- Susceptibility of maize [9]: susceptible
- Susceptibility of tobacco [10]: susceptible
- Susceptibility of barley [11]: susceptible
- Susceptibility of spruce [12]: susceptible
- Susceptibility of poplar [13]: susceptible
- Number of surviving seedlings [5]: 32
- Concentration at which efficient selection was achieved (FIG. 4a) ([5]; in vivo): lower than 1 mM
- Transformation frequencies found on the selective media [5]: 1.67%
- Effect of sprayed application on wild-type seedlings [6]: effectively killed
- Effect on growth of the transgenic plants ([7]; 3 mM): slightly inhibited the growth
- Effect on the transgenic plants [7]: significant growth inhibition
- Development of transgenic plants under selection conditions [7]: developed normally

Structure (SMILES): CC(C)[C@@H](N)C(=O)O [D-valine]
- Effect on wild-type plants at higher concentrations (FIG. 4d) ([3]; higher concentrations): moderately negative effect
- Growth of wild-type plants (FIG. 4) [3]: not toxic; also recorded: minor effects; also recorded: not the wild-type plants
- Increase in production of 3-methyl-2-oxobutanoate compared to extracts of wild-type plants [14]: 7 fold
- Growth of plants expressing DAAO (FIG. 4) ([7]; various concentrations in half-strength MS, 10 d after germination): strong negative influence on the growth; also recorded: inhibit growth

Structure (SMILES): CC[C@H](C)[C@H](N)C(=O)O [L-isoleucine]
- Effects on wildtype plants ([3]; in vivo): negative effects

Structure (SMILES): NC[C@H]1O[C@H](O[C@H]2[C@H](O)[C@@H](O[C@H]3O[C@H](CO)[C@@H](O)[C@H](N)[C@H]3O)[C@H](N)C[C@@H]2N)[C@H](O)[C@@H](O)[C@@H]1O [kanamycin]
- Number of surviving seedlings [5]: 43
- Transformation frequencies found on the selective media [5]: 2.37%
